Patent US9732075B2, “Benzimidazole-proline derivatives” (IDORSIA PHARMACEUTICALS LTD, priority 2012, dated 2017)

Assays:
human orexin-1 receptor = human orexin-1 receptor (Homo sapiens (Human), UniProt O43613); test: In vitro assay: intracellular calcium measurements (FLIPR), antagonistic activity; format: cell-based; conditions: CHO cells expressing human orexin-1 receptor, orexin-A agonist, geometric mean, read-out: IC50 Ox1
Method in brief: (§1)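 Orexin-A-evoked calcium rise (3 nM final, roughly EC70) was recorded with fluo-4 in recombinant CHO cells, human receptor subtype 1 or 2.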

human orexin-2 receptor = human orexin-2 receptor (Homo sapiens (Human), UniProt O43614); test: as above; format: cell-based; conditions: CHO cells expressing human orexin-2 receptor, orexin-A agonist, geometric mean, read-out: IC50 Ox2
Method in brief: as §1

Chain of human orexin-2 receptor (O43614 whole entry): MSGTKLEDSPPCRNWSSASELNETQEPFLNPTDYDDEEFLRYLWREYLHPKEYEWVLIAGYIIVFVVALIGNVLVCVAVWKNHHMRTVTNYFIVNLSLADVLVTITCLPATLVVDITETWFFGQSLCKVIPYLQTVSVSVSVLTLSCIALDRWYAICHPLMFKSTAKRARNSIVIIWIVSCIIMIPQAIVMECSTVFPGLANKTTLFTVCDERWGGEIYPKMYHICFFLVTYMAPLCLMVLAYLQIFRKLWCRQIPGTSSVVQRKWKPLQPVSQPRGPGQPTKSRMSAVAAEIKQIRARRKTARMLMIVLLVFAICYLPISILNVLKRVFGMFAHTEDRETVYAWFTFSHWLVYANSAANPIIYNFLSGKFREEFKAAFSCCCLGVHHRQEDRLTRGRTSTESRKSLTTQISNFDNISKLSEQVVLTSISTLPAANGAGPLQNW
Chain of human orexin-1 receptor (O43613 whole entry): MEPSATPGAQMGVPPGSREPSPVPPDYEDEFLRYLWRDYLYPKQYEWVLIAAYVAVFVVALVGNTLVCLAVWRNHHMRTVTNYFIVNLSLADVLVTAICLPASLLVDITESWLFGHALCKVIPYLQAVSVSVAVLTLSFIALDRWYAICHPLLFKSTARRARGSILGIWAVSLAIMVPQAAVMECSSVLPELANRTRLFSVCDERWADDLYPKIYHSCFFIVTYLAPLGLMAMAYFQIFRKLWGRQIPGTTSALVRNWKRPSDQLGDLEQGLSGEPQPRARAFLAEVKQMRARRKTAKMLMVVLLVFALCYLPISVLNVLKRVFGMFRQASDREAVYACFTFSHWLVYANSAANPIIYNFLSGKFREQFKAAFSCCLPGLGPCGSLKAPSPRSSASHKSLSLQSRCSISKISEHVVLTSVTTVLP

SMILES | IC50 (human orexin-1 receptor) [nM] | IC50 (human orexin-2 receptor) [nM]
CO[C@@H]1C[C@@H](c2nc3c(C)cccc3[nH]2)N(C(=O)c2nc(C)sc2-c2ccccc2)C1 [Ex. 3.4] | 44 | 14
CO[C@H]1C[C@@H](c2nc3c(C)c(Cl)ccc3[nH]2)N(C(=O)c2nc(C)sc2-c2ccccc2)C1 [Ex. 3.5] | 109 | 74
CO[C@@H]1C[C@@H](c2nc3c(C)c(Cl)ccc3[nH]2)N(C(=O)c2nc(C)sc2-c2ccccc2)C1 [Ex. 3.6] | 5 | 4
CO[C@@H]1C[C@@H](c2nc3c(C)cccc3[nH]2)N(C(=O)c2nc(C)sc2-c2cccc(Cl)c2)C1 [Ex. 3.7] | 9 | 5
CO[C@H]1C[C@@H](c2nc3c(C)c(Cl)ccc3[nH]2)N(C(=O)c2nc(C)sc2-c2cccc(Cl)c2)C1 [Ex. 3.8] | 22 | 12
CO[C@@H]1C[C@@H](c2nc3c(C)c(Cl)ccc3[nH]2)N(C(=O)c2nc(C)sc2-c2cccc(Cl)c2)C1 [Ex. 3.9] | 1 | 2
CO[C@@H]1C[C@@H](c2nc3ccc(Cl)c(C)c3[nH]2)N(C(=O)c2cc(Cl)ccc2-n2nccn2)C1 [Ex. 3.10] | 45 | 5
COc1ccc(-n2nccn2)c(C(=O)N2C[C@H](OC)C[C@H]2c2nc3ccc(Cl)c(C)c3[nH]2)c1F [Ex. 3.11] | 6 | 9
COc1ccc(-n2nccn2)c(C(=O)N2C[C@H](OC)C[C@H]2c2nc3ccc(Cl)c(C)c3[nH]2)c1 [Ex. 3.12] | 13 | 1
CO[C@@H]1C[C@@H](c2nc3ccc(Cl)c(C)c3[nH]2)N(C(=O)c2c(-n3nccn3)ccc(C)c2F)C1 [Ex. 3.13] | 16 | 7
CO[C@@H]1C[C@@H](c2nc3ccc(Cl)c(C)c3[nH]2)N(C(=O)c2c(C)cccc2-n2nccn2)C1 [Ex. 3.14] | 674 | 23
CO[C@@H]1C[C@@H](c2nc3ccc(Cl)c(C)c3[nH]2)N(C(=O)c2ccc(C)cc2-n2nccn2)C1 [Ex. 3.15] | 96 | 4
CO[C@@H]1C[C@@H](c2nc3ccc(Cl)c(C)c3[nH]2)N(C(=O)c2cc(C)c(C)cc2-n2nccn2)C1 [Ex. 3.16] | 24 | 2
CO[C@@H]1C[C@@H](c2nc3ccc(Cl)c(C)c3[nH]2)N(C(=O)c2cc(C(F)(F)F)ccc2-n2nccn2)C1 [Ex. 3.17] | 368 | 51
CO[C@@H]1C[C@@H](c2nc3ccc(Cl)c(C)c3[nH]2)N(C(=O)c2cc(F)ccc2-n2nccn2)C1 [Ex. 3.18] | 97 | 4
COc1ccc2nc([C@@H]3C[C@@H](OC)CN3C(=O)c3cc(Cl)ccc3-n3nccn3)[nH]c2c1 [Ex. 3.19] | 1930 | 21
COc1ccc(-n2nccn2)c(C(=O)N2C[C@H](OC)C[C@H]2c2nc3ccc(OC)cc3[nH]2)c1 [Ex. 3.20] | 1860 | 40
COc1ccc2nc([C@@H]3C[C@@H](OC)CN3C(=O)c3ccc(C)cc3-n3nccn3)[nH]c2c1 [Ex. 3.21] | 2510 | 33
COc1ccc2nc([C@@H]3C[C@@H](OC)CN3C(=O)c3cc(C)c(C)cc3-n3nccn3)[nH]c2c1 [Ex. 3.22] | 576 | 9
COc1ccc2nc([C@@H]3C[C@@H](OC)CN3C(=O)c3cc(F)ccc3-n3nccn3)[nH]c2c1 [Ex. 3.23] | 3890 | 67
CO[C@H]1CN(C(=O)c2nc(C)sc2-c2ccccc2)C(C)(c2nc3c(C)c(Cl)ccc3[nH]2)C1 (stereo partly shown) [Ex. 3.24] | 5 | 12
CO[C@H]1CN(C(=O)c2cc(C)ccc2-n2nccn2)C(C)(c2nc3c(C)c(Cl)ccc3[nH]2)C1 (stereo partly shown) [Ex. 3.25] | 5 | 7
CO[C@H]1CN(C(=O)c2cc(C)ccc2-n2nccn2)C(C)(c2nc3c(C)cccc3[nH]2)C1 (stereo partly shown) [Ex. 3.26] | 50 | 66
CO[C@H]1CN(C(=O)c2nc(C)sc2-c2cccc(Cl)c2)C(C)(c2nc3c(C)c(Cl)ccc3[nH]2)C1 (stereo partly shown) [Ex. 3.27] | 5 | 16
CO[C@H]1CN(C(=O)c2nc(C)sc2-c2cccc(Cl)c2)C(C)(c2nc3c(C)cccc3[nH]2)C1 (stereo partly shown) [Ex. 3.28] | 10 | 19

SMILES | IC50 (human orexin-1 receptor) [nM] | IC50 (human orexin-2 receptor) [nM]
CO[C@H]1CN(C(=O)c2nc(C)sc2-c2ccccc2)C(C)(c2nc3c(C)cccc3[nH]2)C1 (stereo partly shown) [Ex. 3.29] | 28 | 20
CO[C@H]1CN(C(=O)c2cc(C)ccc2-n2nccn2)[C@](C)(c2nc3c(C)c(Cl)ccc3[nH]2)C1 [Ex. 3.30] | 2 | 2
CO[C@H]1CN(C(=O)c2nc(C)sc2-c2cccc(Cl)c2)[C@](C)(c2nc3c(C)c(Cl)ccc3[nH]2)C1 [Ex. 3.31] | 5 | 4
CO[C@@H]1C[C@@H](c2nc3ccc(Cl)c(C)c3[nH]2)N(C(=O)c2nc(C)sc2-c2cccc(C)c2)C1 [Ex. 3.32] | 0.9 | 5
CO[C@@H]1C[C@@H](c2nc3ccc(Cl)c(C)c3[nH]2)N(C(=O)c2nc(N(C)C)sc2-c2ccc(C)c(C)c2)C1 [Ex. 3.33] | 0.8 | 10
CO[C@@H]1C[C@@H](c2nc3ccc(Cl)c(C)c3[nH]2)N(C(=O)c2nc(C)sc2-c2ccc(C)c(C)c2)C1 [Ex. 3.34] | 0.9 | 8
CO[C@@H]1C[C@@H](c2nc3ccc(Cl)c(C)c3[nH]2)N(C(=O)c2nc(C)sc2-c2ccc(Cl)cc2)C1 [Ex. 3.35] | 3 | 4
CO[C@@H]1C[C@@H](c2nc3ccc(Cl)c(C)c3[nH]2)N(C(=O)c2nc(C)sc2-c2ccc(C)cc2)C1 [Ex. 3.36] | 5 | 9
COc1ccc(-c2sc(C)nc2C(=O)N2C[C@H](OC)C[C@H]2c2nc3ccc(Cl)c(C)c3[nH]2)cc1 [Ex. 3.37] | 8 | 8
CO[C@@H]1C[C@@H](c2nc3ccc(Cl)c(C)c3[nH]2)N(C(=O)c2ccccc2-c2ccc(C)c(C)c2)C1 [Ex. 3.38] | 6 | 13
CO[C@@H]1C[C@@H](c2nc3ccc(Cl)c(C)c3[nH]2)N(C(=O)c2ccccc2-c2ccccc2)C1 [Ex. 3.39] | 74 | 57
CO[C@@H]1C[C@@H](c2nc3ccc(Cl)c(C)c3[nH]2)N(C(=O)c2ccccc2-c2ccc(F)c(C)c2)C1 [Ex. 3.40] | 8 | 7
CO[C@@H]1C[C@@H](c2nc3ccc(Cl)c(C)c3[nH]2)N(C(=O)c2nc(N(C)C)sc2-c2cccc(Cl)c2)C1 [Ex. 3.41] | 0.7 | 7
CO[C@H]1CN(C(=O)c2c(F)cccc2-n2nccn2)C(C)(c2nc3c(C)c(Cl)ccc3[nH]2)C1 (stereo partly shown) [Ex. 3.42] | 193 | 395
CO[C@H]1CN(C(=O)c2cc(F)ccc2-n2nccn2)C(C)(c2nc3c(C)c(Cl)ccc3[nH]2)C1 (stereo partly shown) [Ex. 3.43] | 10 | 13
CO[C@H]1CN(C(=O)c2cc(Cl)ccc2-n2nccn2)C(C)(c2nc3c(C)c(Cl)ccc3[nH]2)C1 (stereo partly shown) [Ex. 3.44] | 3 | 6
CO[C@H]1CN(C(=O)c2ccccc2-n2nccn2)C(C)(c2nc3c(C)c(Cl)ccc3[nH]2)C1 (stereo partly shown) [Ex. 3.45] | 16 | 19
COc1ccc(-n2nccn2)c(C(=O)N2C[C@H](OC)CC2(C)c2nc3c(C)c(Cl)ccc3[nH]2)c1F (stereo partly shown) [Ex. 3.46] | 223 | 288
CO[C@H]1CN(C(=O)c2c(-n3nccn3)ccc(C)c2F)C(C)(c2nc3c(C)c(Cl)ccc3[nH]2)C1 (stereo partly shown) [Ex. 3.47] | 225 | 471
CO[C@H]1CN(C(=O)c2ccc(C)cc2-n2nccn2)C(C)(c2nc3c(C)c(Cl)ccc3[nH]2)C1 (stereo partly shown) [Ex. 3.49] | 13 | 18
CO[C@H]1CN(C(=O)c2cc(C(F)(F)F)ccc2-n2nccn2)C(C)(c2nc3c(C)c(Cl)ccc3[nH]2)C1 (stereo partly shown) [Ex. 3.50] | 232 | 252
CO[C@H]1CN(C(=O)c2cc(OC(F)(F)F)ccc2-n2nccn2)C(C)(c2nc3c(C)c(Cl)ccc3[nH]2)C1 (stereo partly shown) [Ex. 3.51] | 94 | 44
COc1cc(C(=O)N2C[C@H](OC)CC2(C)c2nc3c(C)c(Cl)ccc3[nH]2)c(-n2nccn2)cc1OC (stereo partly shown) [Ex. 3.52] | 28 | 27
CO[C@H]1CN(C(=O)c2cc(C)ccc2-n2cccn2)C(C)(c2nc3c(C)c(Cl)ccc3[nH]2)C1 (stereo partly shown) [Ex. 3.53] | 10 | 20
CO[C@H]1CN(C(=O)c2ccccc2-n2cccn2)C(C)(c2nc3c(C)c(Cl)ccc3[nH]2)C1 (stereo partly shown) [Ex. 3.54] | 52 | 44
